Patent US10053725B2, “In situ interaction determination” (President and Fellows of Harvard College, priority 2013, dated 2018)
Where no end group is shown, it is not given here.

Columns and labels:
streptavidin (SA) [1] = target: T1, streptavidin (SA) (Streptomyces avidinii, UniProt P22629); conditions: read-out: SA-iminobiotin Kd; cited from earlier work
His6-Bcl-xL = target: T2, His6-Bcl-xL (Homo sapiens, UniProt Q07817); assay: ISID with DNA-αHis and His6-tagged Bcl-xL; assay type: binding
T2 construct: His6-Bcl-xL (truncated C-terminus, amino acids 1 to 212); expressed in transfected cells; host or cells: HEK-293T (lysate)
T2 sequence (Q07817 3-212): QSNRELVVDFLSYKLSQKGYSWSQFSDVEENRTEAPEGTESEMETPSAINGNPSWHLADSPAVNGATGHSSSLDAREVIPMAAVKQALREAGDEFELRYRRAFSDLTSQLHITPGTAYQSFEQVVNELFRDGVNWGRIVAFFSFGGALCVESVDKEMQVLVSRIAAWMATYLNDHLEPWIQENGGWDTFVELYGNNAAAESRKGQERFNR

[2] = target: T3, SNAP-Bcl-xL or Bcl-xL-SNAP (Homo sapiens, UniProt Q07817); assay: ISID in 293T cell lysate expressing SNAP-tagged Bcl-xL; assay type: binding; conditions: mixtures of DNA-Bak/DNA-BakL78A/DNA-biotin
T3 construct: His6-Bcl-xL (truncated C-terminus, amino acids 1 to 212); expressed in transfected cells; host or cells: HEK-293T (lysate)
T3 sequence (Q07817 1-212): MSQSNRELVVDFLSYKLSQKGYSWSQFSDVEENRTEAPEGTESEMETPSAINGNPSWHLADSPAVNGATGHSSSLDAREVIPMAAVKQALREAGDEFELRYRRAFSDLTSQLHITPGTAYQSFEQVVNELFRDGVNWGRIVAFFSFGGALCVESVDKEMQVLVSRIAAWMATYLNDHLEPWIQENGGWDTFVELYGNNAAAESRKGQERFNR

Bcl-xL = Bcl-xL (Homo sapiens, UniProt Q07817); conditions: cited from earlier work
Bcl-xL, sequence (Q07817 whole entry, species assumed): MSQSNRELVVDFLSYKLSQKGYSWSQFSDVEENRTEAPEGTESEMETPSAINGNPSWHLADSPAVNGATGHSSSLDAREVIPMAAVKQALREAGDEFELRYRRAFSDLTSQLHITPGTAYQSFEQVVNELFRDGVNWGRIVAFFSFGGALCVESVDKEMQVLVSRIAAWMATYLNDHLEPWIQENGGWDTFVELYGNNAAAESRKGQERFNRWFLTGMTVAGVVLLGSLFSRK

streptavidin (SA) [3] = target: T1, streptavidin (SA); assay: Antibody-mediated ISID with DNA-αSA and streptavidin (qPCR, mock-library enrichment); assay type: binding
Description: (§1) In cases where recombinant SA or CAII was added to HeLa lysate at 0.01% wt, the protein content of the HeLa cell lysate was first estimated using the Modified Lowry Assay Kit (Thermo Scientific). HeLa cell lysate replaced water in the primer extension reaction mixture, and was added in volumes of 5.7-8.5 μL, with a maximum weight of 60 μg total protein added.

CAII-His6 = target: T4, CAII-His6 (Homo sapiens, UniProt P00918); assay: ISID with DNA-αHis and His6-tagged CAII; assay type: binding
T4 construct: expressed in transfected cells; host or cells: HEK-293T (lysate)

SNAP-CA = target: T5, SNAP-CA (Homo sapiens, UniProt P00918); assay: Model library×library ISID with SNAP-tagged targets: CAII; assay type: binding; conditions: 262 DNA-linked ligands × 259 DNA-linked targets; counts DNA-BG sample / DNA alone sample
T5 construct: expressed in transfected cells; host or cells: HEK-293T (lysate)

SNAP-CAII or CAII-SNAP = target: T6, SNAP-CAII or CAII-SNAP (Homo sapiens, UniProt P00918, S2A); assay: ISID in 293T cell lysate expressing SNAP-tagged CAII; assay type: binding; conditions: 293T lysate expressing SNAP-CAII or CAII-SNAP; mixtures with DNA-desthiobiotin
T6 construct: expressed in transfected cells; host or cells: HEK-293T (lysate)

[4] = target: T7, carbonic anhydrase II (CAII) (Homo sapiens, UniProt P00918, S2A); assay: Antibody-mediated ISID with DNA-αCAII and CAII in HeLa lysate; assay type: binding; conditions: T4 DNA polymerase; mock library DNA-GLCBS/DNA-desthiobiotin; 0.01% CAII in HeLa lysate
T7 construct: made in house; host or cells: E. coli BL21(DE3), pACA plasmid
Description: as §1

[5] = target: carbonic anhydrase II (CAII) (Homo sapiens, UniProt P00918); conditions: read-out: CAII:GLCBS Kd; cited from earlier work
SNAP-Bcl-xL = target: T8, SNAP-Bcl-xL (UniProt Q07817-1 1-212, SNAP-tag covalently labelled with O6-benzylguanine-linked DNA (DNA-BG)); assay: model library x library ISID, pooled 293T lysates expressing SNAP-target fusions; sequence counts with DNA-BG divided by counts with DNA alone
T8 construct: also called N-terminally SNAP-tagged Bcl-xL; not shown: SNAP-tag from the pSNAPf vector (New England Biolabs)
T8 sequence (Q07817 1-212): as the sequence (Q07817 1-212) above

[6] = target: T9, His6-Bcl-xL (truncated C-terminus, amino acids 1 to 212) (UniProt Q07817 1-212); assay: ISID with DNA-αHis in lysate of 293T cells expressing His6-Bcl-xL, mock library, restriction digest and PAGE
T9 construct: range 1-212
T9 sequence (Q07817 other isoform, or with tags, fused parts or gaps): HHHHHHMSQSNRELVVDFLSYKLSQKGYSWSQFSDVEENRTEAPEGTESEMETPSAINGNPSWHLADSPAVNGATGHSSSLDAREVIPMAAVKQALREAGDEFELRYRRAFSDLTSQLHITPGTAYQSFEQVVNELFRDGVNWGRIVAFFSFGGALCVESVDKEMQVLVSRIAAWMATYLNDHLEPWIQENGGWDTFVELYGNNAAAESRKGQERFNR

[7] = T4 DNA polymerase, 8-nt complementary region, mock library with DNA-GLCBS, SA 0.01% wt in HeLa lysate

T1 sequence (P22629 25-183, species assumed): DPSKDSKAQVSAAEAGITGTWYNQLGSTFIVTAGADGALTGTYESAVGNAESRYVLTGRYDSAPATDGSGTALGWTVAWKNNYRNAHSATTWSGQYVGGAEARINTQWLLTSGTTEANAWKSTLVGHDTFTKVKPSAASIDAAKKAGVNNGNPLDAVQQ

## N=C1N[C@H]2[C@H](CS[C@H]2CCCCC(=O)O)N1 [iminobiotin]
Streptavidin (SA) [1]
  Kd: 13 µM

## DNA-Bad: DNA oligonucleotide linked to Bad BH3 peptide
His6-Bcl-xL; 293T cell lysate expressing His6-BclxL, vs DNA-GLCBS or DNA-biotin
  ΔCT: 8
His6-Bcl-xL; recombinant His6-Bcl-xL
  ΔCT: 3 cycles

## BakL78A: BakL78A (72-87) peptide, a weakly binding mutant of the Bak peptide (GQVGRQAAIIGDDINR; not fully specified)
[2]
  enrichment of sequence: no enrichment
Bcl-xL
  Kd: 270 µM

## C[C@@H]1NC(=O)N[C@@H]1CCCCCC(=O)O [desthiobiotin]
Streptavidin (SA) [3]; DNA-αSA, 0.01% SA in HeLa lysate, qPCR
  ΔCT: 4.7
Streptavidin (SA) [3]; [7]
  enrichment of sequence: ~1000 fold

## O=C(O)CCCC[C@@H]1SC[C@@H]2NC(=O)N[C@@H]21 [biotin]
Streptavidin (SA) [3]; Klenow exo−, mixtures DNA-biotin/DNA-GLCBS, SA 0.01% wt in HeLa cell lysate
  enrichment of sequence: ~10 fold
Streptavidin (SA) [3]; [7]
  enrichment of sequence: ~1,000 fold
Streptavidin (SA) [3]; T4 DNA polymerase/8-nt vs Klenow exo−/6-nt complementary region
  improvement in enrichment: 100 fold

## Gly-Leu-CBS [GLCBS]
CAII-His6; 293T cell lysate expressing CAII-His6, undiluted, mock library
  enrichment of sequence: ~10 fold
CAII-His6; transfected lysate diluted 1:10 into untransfected 293T lysate
  enrichment of sequence: ~100 fold
CAII-His6; transfected lysate diluted 1:100 into untransfected lysate, approximating 3 nM CAII-His6
  enrichment of sequence: ~10 fold
SNAP-CA
  enrichment factor: 178.3
SNAP-CAII or CAII-SNAP
  enrichment of sequence: ~100 fold
[4]
  enrichment of sequence: 10 fold
[5]
  Kd: 40 nM

B1: Bad BH3 peptide (103-127) (peptide, UniProt Q92934 103-127, looked up)
peptide: NLWAAQRYGRELRRMSDEFVDSFKK
modifications: also: conjugated to 3'-thiol DNA via SM(PEG)2 crosslinker, attachment site not given here
notes: range 103-127; Used as a peptide-DNA conjugate in ISID; also called DNA-Bad; 3h-Bad
SNAP-Bcl-xL
  enrichment factor: 238
[6]
  enrichment: ~100 fold

B2: BakL78A (72-87) peptide (peptide, UniProt Q16611 72-87, looked up)
peptide: GQVGRQAAIIGDDINR
modifications: also: conjugated to 3'-thiol-modified DNA via SM(PEG)2 crosslinker, site not given here
notes: range 72-87; also called DNA-BakL78A; 3i-BakL78A
SNAP-Bcl-xL
  enrichment factor: 3.9
